Source: publication PMC10575543 (PLOS Pathogens, 2023)
Where “and” joins values, the source holds several entries; their conditions need not be identical. Identical values can stand only once.

Columns and labels:
ALSV MTase [1] = molecular target: T1, ALSV MTase (Alongshan virus, UniProt A0A344X2I6); experiment: biochemical; assay type: binding
ALSV MTase [2] = molecular target: T1, ALSV MTase; assay type: biochemical

SMILES	N index (binding stoichiometry) (ALSV MTase [1])	Kd (ALSV MTase [1]) [µM]	inhibition of ALSV MTase methyltransferase activity (ALSV MTase [2])
Nc1ncnc2c1ncn2[C@@H]1O[C@H](CSCC[C@H](N)C(=O)O)[C@@H](O)[C@H]1O [SAH, S-adenosyl-L-homocysteine]	0.95 ± 0.05 and 1.05 ± 0.06	–	–
Nc1ncnc2c1ncn2[C@@H]1O[C@H](C[C@@H](N)CC[C@H](N)C(=O)O)[C@@H](O)[C@H]1O [SIN, sinefungin]	–	12.6 ± 2.8	preserved its inhibitory capacity
